Test results as given in PubChem BioAssay (NCI).
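Following 48 hours of exposure in 96-well plates, responses at five concentrations were used to interpolate endpoints linearly. TGI: total growth inhibition.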

Tests used:
Assay in all cases: NCI tumour cell line growth inhibition, 48 h
LOX IMVI melanoma = tested on: LOX IMVI melanoma
A549 NSCLC = tested on: A549 NSCLC
HOP-62 NSCLC = tested on: HOP-62 NSCLC
SF-268 CNS = tested on: SF-268 CNS
MDA-MB-231 breast = tested on: MDA-MB-231 breast
NCI-H522 lung = tested on: NCI-H522 lung
M14 melanoma = tested on: M14 melanoma
SF-295 CNS = tested on: SF-295 CNS
TK-10 renal = tested on: TK-10 renal
SNB-75 CNS = tested on: SNB-75 CNS
HCT-116 colon = tested on: HCT-116 colon
EKVX NSCLC = tested on: EKVX NSCLC
K-562 leukemia = tested on: K-562 leukemia
HCT-15 colon = tested on: HCT-15 colon
CCRF-CEM leukemia = tested on: CCRF-CEM leukemia
SK-MEL-28 melanoma = tested on: SK-MEL-28 melanoma
U251 CNS = tested on: U251 CNS
IGROV1 ovarian = tested on: IGROV1 ovarian
HOP-92 NSCLC = tested on: HOP-92 NSCLC
HL-60(TB) leukemia = tested on: HL-60(TB) leukemia
SW-620 colon = tested on: SW-620 colon
786-0 renal = tested on: 786-0 renal
CAKI-1 renal = tested on: CAKI-1 renal
UACC-62 melanoma = tested on: UACC-62 melanoma
OVCAR-3 ovarian = tested on: OVCAR-3 ovarian
SR leukemia = tested on: SR leukemia
MDA-MB-435 = tested on: MDA-MB-435
MALME-3M melanoma = tested on: MALME-3M melanoma
T-47D breast = tested on: T-47D breast
SF-539 CNS = tested on: SF-539 CNS
MDA-N = tested on: MDA-N
SK-MEL-5 melanoma = tested on: SK-MEL-5 melanoma
SK-MEL-2 melanoma = tested on: SK-MEL-2 melanoma
NCI-H460 lung = tested on: NCI-H460 lung
OVCAR-4 ovarian = tested on: OVCAR-4 ovarian
SK-OV-3 ovarian = tested on: SK-OV-3 ovarian
DU-145 prostate = tested on: DU-145 prostate
HS 578T breast = tested on: HS 578T breast
MOLT-4 leukemia = tested on: MOLT-4 leukemia
NCI/ADR-RES ovarian = tested on: NCI/ADR-RES ovarian
PC-3 prostate = tested on: PC-3 prostate
UACC-257 melanoma = tested on: UACC-257 melanoma
A498 renal = tested on: A498 renal
NCI-H226 lung = tested on: NCI-H226 lung
OVCAR-5 ovarian = tested on: OVCAR-5 ovarian
MCF7 breast = tested on: MCF7 breast
COLO 205 colon = tested on: COLO 205 colon
ACHN renal = tested on: ACHN renal
RXF 393 renal = tested on: RXF 393 renal
SN12C renal = tested on: SN12C renal
HT29 colon = tested on: HT29 colon
UO-31 renal = tested on: UO-31 renal
BT-549 breast = tested on: BT-549 breast
NCI-H23 lung = tested on: NCI-H23 lung
KM12 colon = tested on: KM12 colon
SNB-19 CNS = tested on: SNB-19 CNS
RPMI-8226 leukemia = tested on: RPMI-8226 leukemia
OVCAR-8 ovarian = tested on: OVCAR-8 ovarian
HCC-2998 colon = tested on: HCC-2998 colon

COc1ccc(C(NCCNC(c2ccc(OC)c(OC)c2)c2cc3c(cc2O)OCO3)c2cc3c(cc2O)OCO3)cc1OC (stereo not drawn)
TGI (LOX IMVI melanoma): 3.51 µM
TGI (A549 NSCLC): 32.3 µM
TGI (HOP-62 NSCLC): 30.6 µM
TGI (SF-268 CNS): 3.24 µM
TGI (MDA-MB-231 breast): 8.14 µM
TGI (NCI-H522 lung): 3520 nM
TGI (M14 melanoma): 8.39 µM
TGI (SF-295 CNS): 17.8 µM
TGI (TK-10 renal): 12.7 µM
TGI (SNB-75 CNS): 11.5 µM
TGI (HCT-116 colon): 6.05 µM
TGI (EKVX NSCLC): 18.7 µM
TGI (K-562 leukemia): > 28.1 µM
TGI (HCT-15 colon): 5.21 µM
TGI (CCRF-CEM leukemia): 860 nM
TGI (SK-MEL-28 melanoma): 3.55 µM
TGI (U251 CNS): 7.03 µM
TGI (IGROV1 ovarian): 7.67 µM
TGI (HOP-92 NSCLC): 17.1 µM
TGI (HL-60(TB) leukemia): 4690 nM
TGI (SW-620 colon): 3.86 µM
TGI (786-0 renal): 4.58 µM
TGI (CAKI-1 renal): 7.77 µM
TGI (UACC-62 melanoma): 7.52 µM
TGI (OVCAR-3 ovarian): 6.82 µM
TGI (SR leukemia): 3430 nM
TGI (MDA-MB-435): 4110 nM
TGI (MALME-3M melanoma): 15.4 µM
TGI (T-47D breast): 13.1 µM
TGI (SF-539 CNS): 6.09 µM
TGI (MDA-N): 3.58 µM
TGI (SK-MEL-5 melanoma): 19.9 µM
TGI (SK-MEL-2 melanoma): 15.9 µM
TGI (NCI-H460 lung): 18.3 µM
TGI (OVCAR-4 ovarian): 11.5 µM
TGI (SK-OV-3 ovarian): 18.8 µM
TGI (DU-145 prostate): 8.51 µM
TGI (HS 578T breast): > 100 µM
TGI (MOLT-4 leukemia): > 100000 nM
TGI (NCI/ADR-RES ovarian): 8.27 µM
TGI (PC-3 prostate): 6.64 µM
TGI (UACC-257 melanoma): 9.97 µM
TGI (A498 renal): 20.2 µM
TGI (NCI-H226 lung): 39.1 µM
TGI (OVCAR-5 ovarian): 11.6 µM
TGI (MCF7 breast): 3.36 µM
TGI (COLO 205 colon): > 26100 nM
TGI (ACHN renal): 7.95 µM
TGI (RXF 393 renal): 4.85 µM
TGI (SN12C renal): 4.55 µM
TGI (HT29 colon): 9.69 µM
TGI (UO-31 renal): 8.27 µM
TGI (BT-549 breast): 6.22 µM
TGI (NCI-H23 lung): 9.3 µM
TGI (KM12 colon): 7.11 µM
TGI (SNB-19 CNS): 15.4 µM

N/C(=N/O)c1cn(C2OC(CO)C(O)C2O)c2ncnc(NO)c12 (stereo not drawn)
TGI (LOX IMVI melanoma): 4.53 µM
TGI (A549 NSCLC): > 100 µM
TGI (HOP-62 NSCLC): > 100 µM
TGI (SF-268 CNS): > 100 µM
TGI (MDA-MB-231 breast): 5.05 µM
TGI (NCI-H522 lung): 392 nM
TGI (RPMI-8226 leukemia): 1860 nM
TGI (M14 melanoma): 2.88 µM
TGI (SF-295 CNS): 54.7 µM
TGI (TK-10 renal): > 33.6 µM
TGI (HCT-116 colon): > 77.4 µM
TGI (EKVX NSCLC): > 100 µM
TGI (K-562 leukemia): > 100 µM
TGI (HCT-15 colon): > 100 µM
TGI (SK-MEL-28 melanoma): > 51.3 µM
TGI (U251 CNS): 54.1 µM
TGI (IGROV1 ovarian): > 51 µM
TGI (HOP-92 NSCLC): > 45.4 µM
TGI (HL-60(TB) leukemia): 760 nM
TGI (SW-620 colon): > 46.1 µM
TGI (786-0 renal): > 100 µM
TGI (UACC-62 melanoma): 1.66 µM
TGI (SR leukemia): 262 nM
TGI (MDA-MB-435): 805 nM
TGI (MALME-3M melanoma): 0.408 µM
TGI (T-47D breast): > 35.3 µM
TGI (OVCAR-8 ovarian): > 100 µM
TGI (SF-539 CNS): 5.03 µM
TGI (MDA-N): > 100 µM
TGI (SK-MEL-5 melanoma): 0.892 µM
TGI (SK-MEL-2 melanoma): 0.176 µM
TGI (NCI-H460 lung): 7.59 µM
TGI (OVCAR-4 ovarian): 5.98 µM
TGI (DU-145 prostate): > 40 µM
TGI (HS 578T breast): > 100 µM
TGI (MOLT-4 leukemia): 395 nM
TGI (NCI/ADR-RES ovarian): 7.19 µM
TGI (PC-3 prostate): 3.17 µM
TGI (UACC-257 melanoma): 4.4 µM
TGI (A498 renal): 3.01 µM
TGI (NCI-H226 lung): 17.4 µM
TGI (OVCAR-5 ovarian): > 57.7 µM
TGI (MCF7 breast): 23.2 µM
TGI (COLO 205 colon): 623 nM
TGI (ACHN renal): 4.72 µM
TGI (HCC-2998 colon): 7.12 µM
TGI (RXF 393 renal): 14.7 µM
TGI (SN12C renal): > 100 µM
TGI (HT29 colon): > 100 µM
TGI (BT-549 breast): > 100 µM
TGI (NCI-H23 lung): 2.29 µM
TGI (SNB-19 CNS): > 100 µM
